Data reported in patent publication EP2706123A1, “In vitro method for determining genotoxic and non-genotoxic carcinogenicity of a compound” (Rijksinstituut Voor Volksgezondheid En Milieu, priority 2012, dated 2014).
Where “and” joins values, the source holds several entries; their conditions need not be identical. Equal values may be shown once.

How the values were obtained:
9030619P08Rik = assay: Expression level of marker gene 9030619P08Rik in liver of mice exposed for 7 days (microarray); settings: mouse liver, 7 days exposure; for Average Fold Changes of the expression level of marker gene 9030619P08Rik: average of 3 - 4 independent repeat experiments, negative value = underexpression (negative inverse of Ratio), dose and route per compound in Table 8; for Fold Change of expression of 9030619P08Rik in individual animals: one animal per table line (suffix of Exposure label = animal number), negative value = underexpression
LOC75771 = assay: Expression level of marker gene LOC75771 in liver of mice exposed for 7 days (microarray); settings: mouse liver, 7 days exposure; for Average Fold Changes of the expression level of marker gene LOC75771: average of 3 - 4 independent repeat experiments, negative value = underexpression (negative inverse of Ratio), dose and route per compound in Table 8; for Fold Change of expression of LOC75771 in individual animals: one animal per table line (suffix of Exposure label = animal number), negative value = underexpression
Anks4b = assay: Expression level of marker gene Anks4b in liver of mice exposed for 7 days (microarray); settings: mouse liver, 7 days exposure; for Average Fold Changes of the expression level of marker gene Anks4b: average of 3 - 4 independent repeat experiments, negative value = underexpression (negative inverse of Ratio), dose and route per compound in Table 8; for Fold Change of expression of Anks4b in individual animals: one animal per table line (suffix of Exposure label = animal number), negative value = underexpression
Cyp17a1 = assay: Expression level of marker gene Cyp17a1 in liver of mice exposed for 7 days (microarray); settings: mouse liver, 7 days exposure; for Average Fold Changes of the expression level of marker gene Cyp17a1: average of 3 - 4 independent repeat experiments, negative value = underexpression (negative inverse of Ratio), dose and route per compound in Table 8; for Fold Change of expression of Cyp17a1 in individual animals: one animal per table line (suffix of Exposure label = animal number), negative value = underexpression
Nup62 = assay: Expression level of marker gene Nup62 in liver of mice exposed for 7 days (microarray); settings: mouse liver, 7 days exposure; for Average Fold Changes of the expression level of marker gene Nup62: average of 3 - 4 independent repeat experiments, negative value = underexpression (negative inverse of Ratio), dose and route per compound in Table 8; for Fold Change of expression of Nup62 in individual animals: one animal per table line (suffix of Exposure label = animal number), negative value = underexpression
Zbtb16 = assay: Expression level of marker gene Zbtb16 in liver of mice exposed for 7 days (microarray); settings: mouse liver, 7 days exposure; for Average Fold Changes of the expression level of marker gene Zbtb16: average of 3 - 4 independent repeat experiments, negative value = underexpression (negative inverse of Ratio), dose and route per compound in Table 8; for Fold Change of expression of Zbtb16 in individual animals: one animal per table line (suffix of Exposure label = animal number), negative value = underexpression

Compound | Average Fold Changes of the expression level of marker gene 9030619P08Rik (9030619P08Rik) | Fold Change of expression of 9030619P08Rik in individual animals (9030619P08Rik) | Average Fold Changes of the expression level of marker gene LOC75771 (LOC75771) | Fold Change of expression of LOC75771 in individual animals (LOC75771) | Average Fold Changes of the expression level of marker gene Anks4b (Anks4b) | Fold Change of expression of Anks4b in individual animals (Anks4b) | Average Fold Changes of the expression level of marker gene Cyp17a1 (Cyp17a1) | Fold Change of expression of Cyp17a1 in individual animals (Cyp17a1) | Average Fold Changes of the expression level of marker gene Nup62 (Nup62) | Fold Change of expression of Nup62 in individual animals (Nup62) | Average Fold Changes of the expression level of marker gene Zbtb16 (Zbtb16) | Fold Change of expression of Zbtb16 in individual animals (Zbtb16)
CC(=O)Nc1ccc2c(c1)Cc1ccccc1-2 [GTXC_2-AAF, 2-Acetylaminofluorene] | 1,38 | 1,187438 and 1,340597 and 1,335409 and 1,684509 | 1,64 | 1,705921 and 2,011494 and 1,050507 and 1,984839 | 1,87 | 1,655817 and 2,059207 and 2,270806 and 1,587469 | -1,62 | 1,364397 and -2,15504 and -2,61584 and -1,66057 | -1,51 | -1,55724 and -1,69925 and -1,3329 and -1,46527 | -2,94 | -3,61818 and -2,77847 and -3,11926 and -2,3778
c1ccc2c(c1)cc1ccc3cccc4ccc2c1c34 [GTXC_BaP, Benzo(a)pyrene] | 3,08 | 3,463285 and 3,508919 and 1,242329 and 5,940256 | 1,94 | 2,511058 and 2,153342 and 1,654892 and 1,573528 | 1,58 | 2,091694 and 1,512848 and 1,249576 and 1,590135 | 1,59 | 1,069143 and -1,57076 and 2,426957 and 3,849942 | -1,40 | -1,46302 and -1,51176 and -1,24257 and -1,41015 | -2,08 | -2,2075 and -2,73557 and -2,65608 and -1,1713
N.N.[Cl][Pt][Cl] [GTXC_CPPD, Cisplatin] | 1,70 | 1,882632 and 3,19679 and -1,23124 | 1,98 | 2,205733 and 1,720149 and 2,049812 | 1,62 | 1,894611 and 1,416897 and 1,570269 | -2,48 | -4,49668 and -2,09626 and -1,61055 | -1,39 | -1,40437 and -1,37437 and -1,38035 | -3,46 | -4,28606 and -2,61037 and -3,7119
CCOc1ccc(NC(C)=O)cc1 [GTXC_Phe, Phenacetin] |  | 2,591988 and 1,278319 and 1,436254 and 4,17095 |  | 1,462697 and 1,408953 and 1,858825 and 1,503018 |  | 1,592469 and 1,221871 and 1,552723 and 1,512243 | 1,82 | 1,929473 and -1,08575 and 2,976794 and 2,054986 |  | -1,46978 and -1,41748 and -1,3917 and -1,33382 |  | -4,26686 and -1,26966 and -2,10594 and -2,30082
CC(C)(c1ccc(O)cc1)c1ccc(O)cc1 [NC_BPA, Bisphenol A] | 1,29 | -1,23514 and 2,605592 and 1,167664 and 1,121763 | 1,14 | 1,027932 and 1,306211 and -1,1049 and 1,370273 | -1,02 | -1,16229 and 1,285365 and -1,14224 and -1,06695 | -2,45 | -4,75677 and -1,01075 and -3,4994 and -2,12839 | -1,04 | -1,01361 and -1,00973 and 1,14385 and -1,3266 | -1,23 | 1,114306 and -1,6599 and 1,05274 and -1,63459
CC(C)CCCCCCCOC(=O)c1ccccc1C(=O)OCCCCCCCC(C)C [NC_DIDP, Diisodecyl phthalate] | 1,19 | 1,367458 and -2,48269 and 1,316609 and 2,807593 | 1,26 | 1,468884 and 1,270453 and 1,155297 and 1,177232 | 1,17 | 1,254408 and -1,44863 and 1,229508 and 1,74936 | -1,22 | -1,67941 and 2,746697 and -2,01664 and -1,81914 | -1,03 | 1,082226 and -1,02869 and 1,206993 and -1,44589 | -1,37 | 1,045284 and -1,02838 and -1,15546 and -3,11558
CCCCC(CC)COC(=O)c1ccccc1C(=O)OCC(CC)CCCC (stereo not shown) [NGTXC_DEHP, Di(2-ethylhexyl)phthalate] | 3,11 | 1,421539 and 3,741746 and 4,049144 and 4,353386 | 1,12 | 1,152676 and 1,339443 and 1,013056 and 1,023425 | -1,13 | -1,08 and -1,18919 and 1,270926 and -1,59617 | 2,49 | 6,253363 and 1,806164 and 1,292719 and 2,626167 | 1,03 | 1,166832 and 1,023361 and -1,1264 and 1,077398 | -1,19 | -1,41583 and 1,601817 and -2,52071 and 1,114567
CC/C(=C(/CC)c1ccc(O)cc1)c1ccc(O)cc1 [NGTXC_DES, Diethylstillbestrol] | 8,00 | 3,399244 and 17,02687 and 10,00524 and 7,062258 | -1,06 | -1,13239 and -1,07708 and 1,027336 and -1,04436 | -1,02 | 1,020605 and 1,193296 and -1,09903 and -1,20697 | 10,74 | 9,417864 and 18,44632 and 6,256012 and 12,22566 | -1,07 | -1,56356 and 1,18178 and -1,04186 and 1,041463 | -1,15 | -1,72326 and 1,430939 and 1,400903 and -2,03597
CCC1(c2ccccc2)C(=O)NC(=O)NC1=O [NGTXC_PBB, Phenobarbital] | 15,09 | 10,68519 and 17,28227 and 19,31769 and 14,53071 | 1,17 | 1,084573 and 1,085274 and 1,34375 and 1,18945 | 1,47 | 1,857325 and 1,468237 and 1,631778 and 1,048775 | 2,24 | 1,987088 and 1,966993 and 2,933095 and 2,191937 | 1,00 | -1,18737 and -1,21348 and 1,070337 and 1,356669 | -1,59 | -2,34418 and -1,15391 and -1,99396 and -1,17093
